Results published in patent US12319694B2, “Heterocyclic nitrogen-containing purine derivatives, pharmaceutical preparations containing these derivatives and their use in neuroprotection” (UNIVERZITA PALACKEHO, priority 2019, dated 2025).
Several values for one entry are separate records, joined by “and”; a condition that tells them apart may be missing. Identical values can stand only once.

Assays:
[1] = Calcein AM viability test on ATRA-differentiated SH-SY5Y cells; assay type: cell-based, human; details: human, ATRA-differentiated SH-SY5Y neuroblastoma cells, DMSO control = 100%, read-out: % of viability, relative to control; for viability at 24 h, 0.1 µM: 0.1 μM compound; for viability at 24 h, 1 µM: 1 μM compound; for viability at 24 h, 10 µM: 10 μM compound
Procedure: (§1) The SH-SY5Y human neuroblastoma cell line obtained as kind gift from Walter d'Acunto (originally purchased from ATCC—American Type Culture Collection (Manassas, VA, USA) was cultivated in Dulbecco's modified Eagle's Medium and Ham's F12 Nutrient Mixture (DMEM:F-12, 1:1), supplemented with 10% fetal bovine serum (FBS) and 1% penicillin and streptomycin at 37° C. in a humidified atmosphere 5% CO2, 95% air in passage limit up to ATCC+15. The assay was performed in 96-well microplate with 7000 SH-SY5Y cells per well. Next day, SH-SY5Y underwent all-trans retinoic acid (ATRA)-differentiation for 48 h (ATRA 10 μM). After 48 h, old DMEM/F12 media was removed by fresh media containing tested compounds at 0.1, 1 and 10 μM concentrations for 24 h. The tested compounds were dissolved in DMSO were added into the medium. The maximum concentration of DMSO in media was kept below 0.1% (v/v). The cell viability was measured by Calcein AM (1 mg/ml ThermoFisher) viability assay. Solution of Calcein AM in PBS (0.5 uM) was pipetted to cells and incubated for 50 minutes. After that the fluorescence was measured at 488/517 nm (excitation/emission) using microplate reader Infinite M200 (TECAN). Calcein AM assay is based on the dye-intracellular-esterase cleavage of non-fluorescent dye (Calcein AM) by living cells to fluorescent dye (Calcein), while dyeing cells that lose such ability. The values in Table 4 show % of viability, relative to control of all tested compounds. The control (medium with DMSO, <0.1% (v/v)) was postulated as 100% viability (see the first line of the table).

[2] = tested on: SH-SY5Y human neuroblastoma cell line (differentiated phenotype); assay: Viability test, salsolinol-induced model of Parkinson's disease in differentiated SH-SY5Y (Calcein AM); assay type: cell-based; details: 24 h
Procedure: as §1
Similarly, to the previous test the assay was performed in 96-well microplates with 7000 SH-SY5Y cells per well. Day after the seeding of cells, SH-SY5Y underwent all-trans retinoic acid (ATRA)-differentiation for 48 h (ATRA 10 μM). After 48 h, old DMEM/F12 media was removed by fresh media containing 500 μM dopaminergic neurotoxin Salsolinol (SAL) without or with tested compounds at 0.1, 1 and 10 μM concentrations. […] After 24 h the cell viability was measured by Calcein AM viability assay.

[3] = tested on: SH-SY5Y human neuroblastoma cell line; assay: Oxidative stress measurement (dihydroethidium, superoxide) in SH-SY5Y, salsolinol-induced model of PD; assay type: cell-based; details: 6 h; for activity at 1 µM: 1 μM compound with SAL 500 μM; for activity at 1 µM / activity at 10 µM: read-out: Oxidative stress (% of control)
Procedure: The assay was performed in 96-well microplate with 7000 cells/well. Next day, SH-SY5Y underwent differentiation protocol for 48 h see above. Treatment procedure remained the same as in previous section (Cell treatment and viability/cytotoxicity assays). Additionally, oxidative stress (OS) inducers such as 6-hydroxydopamine (6-OHDA) and glutamate (Glu) alone were used as […]. Negative controls determined threshold of excessive OS. […] After 30 minutes, DHE was read at 500 nm/580 nm (excitation/emission). DHE is cell permeable dye which is selective toward superoxide radical detection.

[4] = Radical scavenging activity by ORAC assay; details: NAUC relative to trolox; mean ± SD (n = 3)
Procedure: The ability of compounds to scavenge free radicals in vitro was determined by Oxygen Radical Absorbance Capacity (ORAC) method. In brief, fluorescein (100 μL, […]) and 25 μL of tested compound solution were added into each working well in a 96-well microplate preincubated at 37° C. Thereafter, 25 μL of 250 mM 2,2′-azobis(2-amidino-propan)dihydrochloride (AAPH) was quickly added, microplate was shaken for 5 s and the fluorescence (Ex. 485 nm, Em. 510 nm) was read every 3 min over 90 min by using microplate reader Infinite 200 (TECAN, Switzerland). The NAUC value (Net Area Under Curve) was used to express antioxidant activity relative to trolox (hydrophilic equivalent of vitamin E postulated as a standard). Substances with an ORAC value greater than 0 actively trap free radicals.

Nrf2 = assay: Activation of Nrf2-dependent expression, EpRE-LUX reporter cell line; assay type: cell-based; details: 24 h; tested at 100, 10, 1 and 0.1 μM, concentration of the printed value not stated; mean ± SD (n = 3)
Procedure: The ability of compounds to activate Nrf2-dependent expression was determined by EpRE-LUX reporter cell line. In brief, compounds at 100, 10, 1 and 0.1 μM concentrations of the tested compounds were incubated for 24 h with the cells. After cells lysis (10 mM Tris, 2 mM DTT), a buffer containing 0.2 mM luciferin was added to start luminescent reaction. The increase in luminescence was measured with microplate reader Infinite M200 (TECAN). Compounds with Nrf2 value higher than 0 are strong Nrf2 activators and thus will be useful agents for the treatment of neurodegenerative diseases associated with oxidative stress.

[5] = 0.1 μM compound with 500 μM Salsolinol
[6] = 1 μM compound with 500 μM Salsolinol
[7] = 10 μM compound with 500 μM Salsolinol
[8] = Homo sapiens, SH-SY5Y, 10 μM compound with SAL 500 μM

Row | Compound | viability at 24 h, 0.1 µM [1] [%] | viability at 24 h, 1 µM [1] [%] | viability at 24 h, 10 µM [1] [%] | Neuroprotective effect (% of control) [2, 5] | Neuroprotective effect (% of control) [2, 6] | Neuroprotective effect (% of control) [2, 7] | activity at 1 µM ([3]; Homo sapiens, SH-SY5Y) [%] | activity at 10 µM [3, 8] [%] | ORAC (compound/trolox) [4] [compound/trolox] | Nrf2 (relative luminiscence) (Nrf2) | reduction of oxidative stress induced by Salsolinol (in words) ([3]; SAL 500 μM, compounds 1 and 10 μM) | decrease in percentages of alive cells ([2]; 500 μM Salsolinol alone) [%] | Oxidative stress (% of control) ([3]; Salsolinol 500 μM alone, DMSO control = 100%) | Oxidative stress (% of control) ([3]; Glu 160 mM alone (negative control)) | Oxidative stress (% of control) ([3]; 10 μM compound with SAL 500 μM) | activity at 30 µM ([3]; Homo sapiens, SH-SY5Y, 6-OHDA 30 μM alone (negative control)) [%]
1 | Oc1cccc(Cn2cnc3c(N4CCCC4)nc(N4CCCC4)nc32)c1 [Compound 26, 9-(3-Hydroxybenzyl)-2,6-di(pyrrolidin-1-yl)-9H-purine] | 108 | 120 | 142 | 4.90 % of control | 14.43 % of control | 20.71 % of control | 107 | 142 | 0.126 ± 0.018 | 0.33 ± 0.06 | – | – | – | – | – | –
2 | c1ccc(Cn2cnc3c(N4CCCC4)nc(N4CCCCC4)nc32)cc1 [Compound 77, 9-Benzyl-2-(piperidin-1-yl)-6-(pyrrolidin-1-yl)-9H-purine] | 107 | 118 | 117 | 4.64 % of control | 12.11 % of control | 13.8 % of control | 118 | 127 | 0.028 ± 0.001 | 0.16 ± 0.04 | – | – | – | – | – | –
3 | c1ccc(Cn2cnc3c(N4CCOCC4)nc(N4CCOCC4)nc32)cc1 [Compound 4, 2,6-dimorpholino-9-benzylpurine] | 106 | 113 | 146 | 1.70 % of control | 8.11 % of control | 21.12 % of control | 106 | 155 | 0.007 ± 0.002 | 0.19 ± 0.02 | – | – | – | – | – | –
4 | c1ccc(Cn2cnc3c(N4CCSCC4)nc(N4CCSCC4)nc32)cc1 [Compound 5, 9-benzyl-2,6-dithiomorpholino-9H-purine] | 106 | 126 | 129 | 7.03 % of control | – | 19.89 % of control | 121 | 135 | 0.016 ± 0.001 | 0.17 ± 0.06 | highest potency toward the reduction of oxidative stress | – | – | – | – | –
5 | C[C@@H]1NCCc2cc(O)c(O)cc21 [Salsolinol, reference compound] | – | – | – | – | – | – | – | – | – | – | – | 30.7 | 335.4 % of control and 335.36 % of control | – | – | –
6 | COc1cc2c(cc1OC)C(=O)C(CC1CCN(Cc3ccccc3)CC1)C2 (stereo not drawn) [Donepezil, reference compound] | – | – | – | 2.76 % of control | 6.73 % of control | 14.25 % of control | – | – | – | – | – | – | – | – | – | –
7 | N[C@@H](CCC(=O)O)C(=O)O [Glu, glutamate, reference compound] | – | – | – | – | – | – | – | – | – | – | – | – | – | 268.62 % of control | – | –
8 | Nc1nc(NCCc2ccc(O)cc2)nc2nc(-c3ccco3)nn12 [ZM241385, reference compound] | – | – | – | 1.95 % of control | 7.03 % of control | 9.31 % of control | – | 102 | – | – | – | – | – | – | – | –
9 | c1ccc(Cn2cnc3c(N4CCCCC4)nc(N4CCCC4)nc32)cc1 [Compound 78, 9-Benzyl-6-(piperidin-1-yl)-2-(pyrrolidin-1-yl)-9H-purine] | 106 | 120 | 134 | N/A (N/A = no protection) | 17.95 % of control | N/A (N/A = no protection) | 136 | 238 | 0.071 ± 0.005 | 0.23 ± 0.03 | – | – | – | – | OS level reaching threshold of negative controls | –
10 | NCCc1cc(O)c(O)cc1O [Compound 6-OHDA, 6-hydroxydopamine, reference compound] | – | – | – | – | – | – | – | – | – | – | – | – | – | – | – | 215
11 | CC(=O)N(O)CCCCCNC(=O)CCC(=O)N(O)CCCCCNC(=O)CCC(=O)N(O)CCCCCN [Deferoxamine, reference compound] | – | – | – | 1.43 % of control | 4.86 % of control | 10.52 % of control | – | 101 | – | – | – | – | – | – | – | –
12 | Clc1cccc(Cl)c1Cn1cnc2c(N3CCCC3)nc(N3CCCC3)nc21 [Compound 74, 9-(2,6-Dichlorobenzyl)-2,6-di(pyrrolidine-1-yl)-9H-purine] | 111 | 138 | 152 | 8.57 % of control | 20.24 % of control | 22.35 % of control | 126 | 179 | – | 0.38 ± 0.08 | – | – | – | – | – | –
